What was measured:
Assay type in all cases: functional
HCT-15 = experiment: Anticancer activity against human HCT15 cells after 48 hrs by sulforhodamine B assay
SNB-19 = experiment: Anticancer activity against human SNB19 cells after 48 hrs by sulforhodamine B assay
PC-3 = experiment: Anticancer activity against human PC3 cells after 48 hrs by sulforhodamine B assay; conditions: Homo sapiens, PC-3, 48 h
[1] = Anticancer activity against human […] cells after 48 hrs by sulforhodamine B assay; conditions: Homo sapiens, RPMI8266, 48 h
MDA-MB-435 = experiment: Anticancer activity against human MDA-MB-435 cells after 48 hrs by sulforhodamine B assay; conditions: Homo sapiens, MDA-MB-435, 48 h
SF-268 = experiment: Anticancer activity against human SF268 cells after 48 hrs by sulforhodamine B assay; conditions: Homo sapiens, SF-268, 48 h
M14 = experiment: Anticancer activity against human M14 cells after 48 hrs by sulforhodamine B assay; conditions: Homo sapiens, M14, 48 h
NCI-H522 = experiment: Anticancer activity against human NCI-H522 cells after 48 hrs by sulforhodamine B assay
SK-MEL-5 = experiment: Anticancer activity against human SK-MEL-5 cells after 48 hrs by sulforhodamine B assay; conditions: Homo sapiens, SK-MEL-5, 48 h
COLO 205 = experiment: Anticancer activity against human COLO205 cells after 48 hrs by sulforhodamine B assay; conditions: Homo sapiens, COLO 205, 48 h
SK-OV-3 = experiment: Anticancer activity against human SKOV3 cells after 48 hrs by sulforhodamine B assay
UACC-257 = experiment: Anticancer activity against human UACC257 cells after 48 hrs by sulforhodamine B assay
Malme-3M = experiment: Anticancer activity against human MALME-3M cells after 48 hrs by sulforhodamine B assay
K562 = experiment: Anticancer activity against human K562 cells after 48 hrs by sulforhodamine B assay
A549 = experiment: Anticancer activity against human A549 cells after 48 hrs by sulforhodamine B assay; conditions: Homo sapiens, A549, 48 h
A498 = experiment: Anticancer activity against human A498 cells after 48 hrs by sulforhodamine B assay; conditions: Homo sapiens, A498, 48 h
[2] = Anticancer activity against human Hs 578T cells after 48 hrs by sulforhodamine B assay; conditions: Homo sapiens, Hs-578T, 48 h
HCC 2998 = experiment: Anticancer activity against human HCC2998 cells after 48 hrs by sulforhodamine B assay; conditions: Homo sapiens, HCC 2998, 48 h
T47D = experiment: Anticancer activity against human T47D cells after 48 hrs by sulforhodamine B assay; conditions: Homo sapiens, T47D, 48 h
HCT-116 = experiment: Anticancer activity against human HCT116 cells after 48 hrs by sulforhodamine B assay; conditions: Homo sapiens, HCT-116, 48 h
SK-MEL-28 = experiment: Anticancer activity against human SK-MEL-28 cells after 48 hrs by sulforhodamine B assay; conditions: Homo sapiens, SK-MEL-28, 48 h
HOP-62 = experiment: Anticancer activity against human HOP62 cells after 48 hrs by sulforhodamine B assay; conditions: Homo sapiens, HOP-62, 48 h
MDA-MB-468 = experiment: Anticancer activity against human MDA-MB-468 cells after 48 hrs by sulforhodamine B assay
SR = experiment: Anticancer activity against human SR cells after 48 hrs by sulforhodamine B assay
TK-10 = experiment: Anticancer activity against human TK10 cells after 48 hrs by sulforhodamine B assay; conditions: Homo sapiens, TK-10, 48 h
NCI-H226 = experiment: Anticancer activity against human NCI-H226 cells after 48 hrs by sulforhodamine B assay; conditions: Homo sapiens, NCI-H226, 48 h
MOLT-4 = experiment: Anticancer activity against human MOLT4 cells after 48 hrs by sulforhodamine B assay
IGROV-1 = experiment: Anticancer activity against human IGROV1 cells after 48 hrs by sulforhodamine B assay; conditions: IGROV-1, 48 h
OVCAR-5 = experiment: Anticancer activity against human OVCAR5 cells after 48 hrs by sulforhodamine B assay; conditions: Homo sapiens, OVCAR-5, 48 h
RXF 393 = experiment: Anticancer activity against human RXF393 cells after 48 hrs by sulforhodamine B assay; conditions: Homo sapiens, RXF 393, 48 h
OVCAR-4 = experiment: Anticancer activity against human OVCAR4 cells after 48 hrs by sulforhodamine B assay
[3] = read-out: LC50 (the source's name)

CCCCCCCCCCCCCCCCCC[n+]1ccn(C)c1.[Cl-]
GI50 (HCT-15): 461 nM | CC50 (HCT-15; Homo sapiens, HCT-15, 48 h, read-out: LC50 (the source's name)): 4110 nM | GI50 (SNB-19; Homo sapiens, SNB-19, 48 h): 1220 nM | CC50 (SNB-19; [3]): > 100000 nM | GI50 (PC-3): 212 nM | CC50 (PC-3; [3]): 2850 nM | GI50 [1]: 27 nM | CC50 [1, 3]: 1210 nM | GI50 (MDA-MB-435): 684 nM | CC50 (MDA-MB-435; [3]): 7960 nM | GI50 (SF-268): 978 nM | CC50 (SF-268; [3]): 5880 nM | GI50 (M14): 330 nM | LC50 (50% lethal concentration) (M14): 6630 nM | GI50 (NCI-H522): 364 nM | LC50 (NCI-H522; Homo sapiens, NCI-H522, 48 h): 6450 nM | GI50 (SK-MEL-5): 414 nM | CC50 (SK-MEL-5; [3]): 3970 nM | GI50 (COLO 205): 285 nM | CC50 (COLO 205; [3]): > 100000 nM | GI50 (SK-OV-3; Homo sapiens, SK-OV-3, 48 h): 1240 nM | CC50 (SK-OV-3; [3]): > 100000 nM | GI50 (UACC-257): 125 nM | LC50 (UACC-257; Homo sapiens, UACC-257, 48 h): 6770 nM | GI50 (Malme-3M): 368 nM | LC50 (concentration killing 50% of cells) (Malme-3M; Homo sapiens, Malme-3M, 48 h): 5820 nM | GI50 (K562): 385 nM | CC50 (K562; Homo sapiens, K562, 48 h, read-out: LC50 (the source's name)): > 100000 nM | GI50 (A549): 639 nM | LC50 (concentration killing 50% of cells) (A549): 10000 nM | GI50 (A498): 1070 nM | CC50 (A498; [3]): 8940 nM | GI50 [2]: 335 nM | CC50 [2, 3]: 6310 nM | GI50 (HCC 2998): 296 nM | CC50 (HCC 2998; [3]): 7770 nM | GI50 (T47D): 546 nM | CC50 (T47D; [3]): > 100000 nM | GI50 (HCT-116): 343 nM | CC50 (HCT-116; [3]): > 100000 nM | GI50 (SK-MEL-28): 879 nM | LC50 (SK-MEL-28): 5750 nM | GI50 (HOP-62): 967 nM | CC50 (HOP-62; [3]): 7800 nM | GI50 (MDA-MB-468): 66 nM | LC50 (MDA-MB-468; Homo sapiens, MDA-MB-468, 48 h): 7250 nM | GI50 (SR): 154 nM | CC50 (SR; [3]): 3790 nM | GI50 (TK-10): 244 nM | LC50 (TK-10): 2770 nM | GI50 (NCI-H226): 869 nM | LC50 (NCI-H226): 5990 nM | GI50 (MOLT-4): 189 nM | LC50 (MOLT-4): 2160 nM | GI50 (IGROV-1): 175 nM | CC50 (IGROV-1; [3]): > 100000 nM | GI50 (OVCAR-5): 819 nM | CC50 (OVCAR-5; [3]): 7890 nM | GI50 (RXF 393): 265 nM | LC50 (RXF 393): 4900 nM | GI50 (OVCAR-4; Homo sapiens, OVCAR-4, 48 h): 778 nM | CC50 (OVCAR-4; [3]): > 100000 nM
